Laboratory results reported in patent US4470980A, “Method of increasing oral absorption of β-lactam antibiotics” (priority 1981, dated 1984).
Read-outs that look alike come from different tables or passages of the source.

Legend:
[1] = cited from earlier work
[2] = Blood level AUC after oral capsule of β-lactam antibiotic with adjuvant in dogs; assay type: in vivo, dog (Beagles); settings: 300 mg/kg, dog, per os capsule, control, no absorption promotor, carbenicillin by bioassay, read-out: (AUC)° area below the blood level curve
Method: Animal: Beagles (body weight 9.9-12.0 kg), 2 animals per test
Drug: β-Lactam antibiotics
Adjuvant: Hydroxylated aromatic carboxylic acids
Dose: β-Lactam antibiotic/adjuvant=300 mg/300 mg/kg
Form of inoculum: Capsule
Route of administration: Per os
Blood sampling: Vein (upper arm)
Object of assay: Blood level
Quantitation: Carbenicillin was determined by bioassay.

in vivo = settings: mouse, urine, po, control without sodium salicylate, cefmetazole 50 mg/kg, gavage, mice, ± standard deviation, 8 mice, read-out: Percent of Dose In Urine
Method: The sodium salt of cefmetazole (50 mg/kg) and sodium salicylate (200 mg/kg) dissolved in water were given to mice by gavage. As a control, mice were given an equal dose of the sodium salt of cefmetazole in water without the added sodium salicylate. The mice were place in individual metabolism cages and their urines collected after 24 hours.
The urine samples were acidified to pH 2.0 with 1N phosphoric acid. Acidified samples were applied to 100-200 mesh XAD.2 columns (1.5 ml), and the column washed with H2 O. Cefmetazole was eluted with 2 ml methanol and measured by high pressure liquid chromatography which was carried out using an Altex liquid chromatograph equipped with a dual wavelength recorder (254 nm and 280 nm). The column was a LiChrosorb 10 RP-18 (length=25 cm., internal diameter--4.6 mm) obtained from Chrompack, Whittier, CA. All assays were done at ambient temperatures. A 3 cm guard column of RP-18 column material (Rheodyne, Inc., Berkeley, CA) was also used. […] Concentrations of cefmetazole were determined by measuring peak height at 254 nm and evaluating on the basis of standard curves run under identical conditions.

[3] = gastric acid; prior art; cited from earlier work

O=C(Cc1cccs1)N[C@@H]1C(=O)N2C(C(=O)[O-])=C(C[n+]3ccccc3)CS[C@H]12 [cephaloridine]
oral activity ([1]; oral, prior art): poor oral activity

CC1(C)S[C@@H]2[C@H](NC(=O)C(C(=O)O)c3ccccc3)C(=O)N2[C@H]1C(=O)O (stereo partly drawn) [Carbenicillin]
AUC [2]: 5200 ng·h/mL

CC(=O)OCC1=C(C(=O)O)N2C(=O)[C@@H](NC(=O)CSc3ccncc3)[C@H]2SC1 [cephapirin]
oral activity ([1]; oral, prior art): poor oral activity

CO[C@@]1(NC(=O)C(C(=O)O)c2ccc(O)cc2)C(=O)N2C(C(=O)O)=C(CSc3nnnn3C)CO[C@@H]21 (stereo partly drawn) [Example S-6059]
oral activity ([1]; in vivo, po): poor oral activity

CCN1CCN(C(=O)N[C@@H](C(=O)N[C@@H]2C(=O)N3C(C(=O)O)=C(CSc4nnnn4C)CS[C@H]23)c2ccc(O)cc2)C(=O)C1=O [Example T-1551]
oral activity ([1]; oral, prior art): poor oral activity

CC(=O)OCC1=C(C(=O)O)N2C(=O)[C@@H](NC(=O)CCC[C@@H](N)C(=O)O)[C@H]2SC1 [cephalosporin C]
oral activity ([1]; oral, prior art): lack of oral activity

CC1(C)S[C@@H]2[C@H](NC(=O)[C@H](N)c3ccc(O)cc3)C(=O)N2[C@H]1C(=O)O [amoxicillin, 6-[[amino(4-hydroxyphenyl)-acetyl]amino]-3,3-dimethyl-7-oxo-4-thia-1-azabicyclo-[3.2.0]heptane-2-carboxylic acid]
oral activity ([1]; oral, prior art): poor oral activity

CC1=C(C(=O)O)N2C(=O)[C@@H](NC(=O)[C@H](N)c3ccc(O)cc3)[C@H]2SC1 [cefdioxil]
absorbed ([1]; in vivo, po): greater than 80%

CC(=O)OCC1=C(C(=O)O)N2C(=O)[C@@H](NC(=O)Cc3cccs3)[C@H]2SC1 [cephalothin]
oral activity ([1]; in vivo, po): poor oral activity

CC1=C(C(=O)O)N2C(=O)[C@@H](NC(=O)[C@H](N)C3=CCC=CC3)[C@H]2SC1 [cephradine]
absorbed ([1]; in vivo, po): greater than 80%

CC(=O)OCC1=C(C(=O)O)N2C(=O)[C@@H](NC(=O)CC#N)[C@H]2SC1 [cephacetrile]
oral activity ([1]; oral, prior art): poor oral activity

Cc1nnc(SCC2=C(C(=O)O)N3C(=O)[C@@H](NC(=O)[C@H](N)c4ccc(O)cc4)[C@H]3SC2)s1 [cefaporole]
oral activity ([1]; oral, prior art): poor oral activity

CC(=O)OCC1=C(C(=O)O)N2C(=O)[C@@H](NC(=O)[C@H](N)c3ccccc3)[C@H]2SC1 [cephaloglycin]
absorbed ([1]; oral, prior art): greater than 80%

CC1(C)S[C@@H]2[C@H](NC(=O)C(C(=O)Oc3ccccc3)c3ccccc3)C(=O)N2[C@H]1C(=O)O (stereo partly drawn) [carfecillin]
absorbed ([1]; in vivo, po): 40%
blood levels ([1]; in vivo, po): low blood levels of carbenicillin

CC1(C)S[C@@H]2[C@H](NC(=O)[C@H](C(=O)O)c3ccsc3)C(=O)N2[C@H]1C(=O)O [ticarcillin]
oral activity ([1]; oral, prior art): cannot be administered by the oral route

CC1(C)S[C@@H]2[C@H](NC(=O)C(C(=O)Oc3ccc4c(c3)CCC4)c3ccccc3)C(=O)N2[C@H]1C(=O)O (stereo partly drawn) [carindacillin]
absorbed ([1]; in vivo, po): 40%
blood levels ([1]; in vivo, po): low blood levels of carbenicillin

CO/N=C(\C(=O)N[C@@H]1C(=O)N2C(C(=O)O)=C(COC(N)=O)CS[C@H]12)c1ccco1 [cefuroxime]
oral activity ([1]; in vivo, po): poor oral activity

CO[C@@]1(NC(=O)CSCC#N)C(=O)N2C(C(=O)O)=C(CSc3nnnn3C)CS[C@@H]21 [Cefmetazole]
dose excreted at 24 h (in vivo): 9.1 ± 7.5%
oral activity ([1]; oral, prior art): poor oral activity

CC1(C)S[C@@H]2[C@H](NC(=O)[C@H](N)c3ccccc3)C(=O)N2[C@H]1C(=O)O [ampicillin]
oral activity ([1]; oral, prior art): poor oral activity

Cc1nnc(SCC2=C(C(=O)O)N3C(=O)[C@@H](NC(=O)Cn4cnnn4)[C@H]3SC2)s1 [cefaxolin]
oral activity ([1]; oral, prior art): poor oral activity

N[C@@H](C(=O)N[C@@H]1C(=O)N2C(C(=O)O)=C(Cl)CS[C@H]12)c1ccccc1 [cefaclor]
absorbed ([1]; oral, prior art): greater than 80%

CO[C@@]1(NC(=O)Cc2cccs2)C(=O)N2C(C(=O)O)=C(COC(N)=O)CS[C@@H]21 [cefoxitin, (6R-cis)-3-[[(amino-carbonyl)oxy]methyl]-7-methoxy-8-oxo7[(2-thienylacetyl)-amino]-5-thia-1-azabicyclo [4.2.0]oct-2-ene-2-carboxylic acid]
oral activity ([1]; in vivo, po): poor oral activity

CC1(C)S[C@@H]2[C@H](NC(=O)COc3ccccc3)C(=O)N2[C@H]1C(=O)O [penicillin V]
acid stability [3]: more acid stable
blood levels ([1]; oral, prior art): higher blood levels of the active therapeutic agent
